How the values were obtained:
MiaPACA2 = MiaPACA2 pancreatic carcinoma cells injected in the pancreas of NSG mice, survival; assay type: in vivo; conditions: doxorubicin group
Description: Effect of CoQ10 IV Formulation on Pancreatic Carcinoma Cell Line: MiaPACA2, a pancreatic cell line was employed on NSG mice. Mice were anesthetized in a sterile environment where they had been housed. Once animals reached surgical-plane anesthesia, mice were laid down, and the abdominal area was palpated. The pancreas was located behind the stomach, between the spleen, and the stomach, both of which are palpable organs. Thereafter, […] were injected in the pancreas by gently manipulating the animal to reach the area behind the stomach. All of these procedures were performed under sterile conditions in a biosafety cabinet, and the animals were housed under strict sterile conditions as well to avoid opportunistic infections. After injection of cells, animals were closely monitored daily. Animals were then randomized into 8 groups receiving a different dose of the CoQ10 N formulation. […] The formulation was administered intravenously via tail veins with dosing every other day three times per week for up to 28 days. The summary of results are depicted in the following graphs (FIGS. 49-56).

[1] = Combination therapy with doxorubicin, survival of rodents; assay type: in vivo; conditions: administered intraperitoneally, by itself, in rodents
Description: Combination Therapy With CoQ10 IV Formulation and Chemotherapy Adjuvant Doxorubicin, a powerful chemotherapeutic, is lethal when administered intraperitoneally, by itself, in rodents. CoQ10 IV Formulation was administered in combination with doxorubicin.

[2] = test system: lung clone of a malignant chloroma; test: Effect on lung tumors: lung clone of malignant chloroma in rats, alone and with cyclophosphamide; assay type: in vivo, Fischer 344 rats; conditions: Group III, cyclophosphamide 35 mg/kg IP once
Description: Twenty-four Fischer 344 rats were injected intraperitoneally with the lung clone of a malignant chloroma. The rats were then randomized into groups of 6 rats each. Group 1 served as a control, treated with 0.5 mL of phosphate buffered saline (PBS) on Monday, Wednesday and Friday for three (3) weeks. […] The formulation was administered by IP injection in a volume of 0.5 mL on Monday, Wednesday, and Friday for three (3) weeks. Group III received 35 mg/kg cyclophosphamide by IP injection once.

[3] = test system: liver clone of a malignant chloroma; test: Effect on liver cancer: liver clone of malignant chloroma in rats, alone and with cyclophosphamide; assay type: in vivo, Fischer 344 rats; conditions: Group III, cyclophosphamide 35 mg/kg once
Description: Effect of CoQ10 IV Formulation on Liver Cancer: The ability of a Coenzyme Q10 formulation of the present invention to inhibit proliferation of liver tumor cells was examined in an animal model. Twenty-four Fischer 344 rats were injected intraperitoneally with the liver clone of a malignant chloroma Rats were then randomized into groups of 6 rats each. Group 1 served as a control, treated with 0.5 mL of phosphate buffered saline on Monday, Wednesday and Friday for three (3) weeks. Group II received a sterile nanodispersion by IP injection of 20 mg of Coenzyme Q10. […] The formulation was administered by IP injection in a volume of 0.5 mL on Monday, Wednesday and Friday for three (3) weeks. Group III received 35 mg/kg of cyclophosphamide once. Group IV received 20 mg of the 4:3:1.5 CoQ10 formulation in 0.5 mL on Monday, Wednesday and Friday for three (3) weeks. In addition, they received 35 mg/kg of cyclophosphamide once.

SMILES | survivors at 60 days (MiaPACA2) | lethality [1] | 4 rats survived up to day [2] | rats remained disease-free [2] | rats remained disease-free [3] | the other three rats survived up to day [3]
COc1cccc2c1C(=O)c1c(O)c3c(c(O)c1C2=O)C[C@@](O)(C(=O)CO)C[C@@H]3O[C@H]1C[C@H](N)[C@H](O)[C@H](C)O1 [doxorubicin] | 0 of 30 | lethal | – | – | – | –
O=P1(N(CCCl)CCCl)NCCCO1 (stereo not drawn) [chemotherapy, cyclophosphamide] | – | – | 35 days | 1 rat | 1 rat | 34 days

From US11400058B2, “Intravenous formulations of coenzyme Q10 (CoQ10) and methods of use thereof” (Berg LLC, priority 2010, dated 2022)
